Results on 1 compound are retold here after US20210095293A1, “METHODS OF TREATING CANCERS WITH GPR132 INHIBITORS” (The Board of Regents of the University of Texas System, priority 2016, published 2021).

Each structure is given as a SMILES string.

What all share (assay type): cell-based, mouse
Experiment [1] relates to bone marrow derived macrophages (BMDMs). The experiment in a line: macrophage M2-like morphology (elongation). To be noted: WT BMDMs, exogenous lactate added. The source says: FIGS. 9A-9D. Tumor-derived factors activate M2-like macrophages via Gpr132. (FIG. 9A) The pH values of conditioned media (CM) from cancer cells or macrophages (n=5-8); *p<0.05, ****p<0.001 compared with RAW 264.7 macrophage CM. (FIG. 9B) Western blot for CD206 and Gpr132 in RAW 264.7 macrophages after treatment with indicated cancer cell CM for 24 hrs. Actin was used as a loading control. The CD206/actin or Gpr132/actin ratio was quantified and shown as fold changes compared to control (n=3); *p<0.05, ***p<0.005 compared with control. (FIG. 9C) Flow cytometry analysis of Gpr132 and CD206 in BMDMs with or without EO771 CM treatment. The experiments were repeated twice and the representative results are shown. (FIG. 9D) Immunofluorescence staining for CD11b in WT and Gpr132-KO BMDMs after differentiation in the absence or presence of 30% EO771 CM or 4T1.2 CM for 7 days. Elongated macrophage morphology indicates a M2-like phenotype. Nuclei were stained with DAPI. Scale bar, 25 μm. WT, wild-type; Gpr132-KO, Gpr132 knockout.
FIGS. 10A-10F. […] LC-MS was used to quantify lactate in the eluent of Gpr132 co-IP. (Left) Representative LC-MS chromatograms; (Right) Quantification of relative lactate binding (n=3). ****p<0.001 compared with WT. […] CD206/actin ratio was quantified and shown as fold changes compared to control (n=3-4); *p<0.05 compared with WT control. […]

In another experiment the test system is AKT/mTOR signaling. The experiment in a line: PathScan Akt Signaling Antibody Array in macrophages. The following applies: lactate 5 mM for 15 min. On the procedure:
FIG. 20. Lactate activates macrophage AKT/mTOR signaling via Gpr132. WT and Gpr132-KO bone marrow-derived macrophages were serum starved for 24 hrs. After treatment with lactate (5 mM) for 15 min, cell lysate was harvested for detecting the activation status of AKT signaling pathway using a PathScan Akt Signaling Antibody Array Kit. WT, wild-type; Gpr132-KO, Gpr132 knockout.
To identify the signaling pathways that may mediate the function of lactate-Gpr132 axis in M2 macrophage activation, PathScan Akt Signaling Antibody Array was used to screen potential targets due to the importance of the Akt pathway in macrophage polarization. […] These findings reveal that lactate activation of Gpr132 facilitates macrophage M2 activation by augmenting AKT/mTOR signaling.
Samples of 20 μg protein were applied to SDS polyacrylamide gels. After protein transfer, membranes were incubated with antibodies for Arg-1 (rabbit polyclonal, Santa Cruz Biotechnology), CD206, Gpr132, or β-actin (mouse monoclonal, Sigma) (1:1000) overnight at 4° C. […] Densitometric quantification was performed by Image-Pro Plus 6.0 software (Media Cybernetics). PathScan Akt Signaling Antibody Array (Cell Signaling) was incubated with macrophage proteins and analyzed following kit instructions.

Another experiment concerns 4T1.2 cells. The experiment in a line: adherence assay of breast cancer cells to fibronectin. The following applies: macrophages activated by 4T1.2 CM or lactate (5 mM); vs untreated control macrophages. On the procedure: FIGS. 11A-11C. Lactate-activated macrophage promotes cancer cell adhesion, migration and invasion via Gpr132. (FIG. 11A) Adherence assays. 4T1.2 cells were suspended in fibronectin ([…]) pre-coated plates with CM from spleen-derived macrophages (mf) that were treated with 4T1.2 CM or lactate (5 mM) with or without Gpr132 antibody (6 mg/ml) or normal IgG (6 mg/ml) for 10 min. The adhered cells were stained with crystal violet, dissolved in 1% Triton X-100 and measured by OD590. (FIGS. 11B-11C) Boyden chamber assay of cancer cell migration and invasion. 4T1.2 cells (B) or EO771 cells (FIG. 11C) were plated on the upper chamber inserts, with untreated (Control), 4T1.2 CM-activated or lactate-activated spleen-derived WT or Gpr132-KO macrophages plated in the lower chambers. For invasion assay, the inserts were pre-coated with 60 μl matrigel. After migration for 6 hrs (FIG. 11B) or invasion for 24 hrs (FIG. 11C), the migrated or invaded cells were stained with crystal violet and counted as cells per field of view under microscope (n=3-4); For (FIG. 11C), the first bar of each data set of the bar graphs represents the control mf, and the second bar represents Gpr132KO; *p<0.05; **p<0.01; ***p<0.005; ****p<0.001. […]
Cancer cells were treated with the conditioned medium from indicated macrophage for 2 hrs. Adherence of treated breast cancer cells to fibronectin was evaluated as described.

Take `CC(O)C(=O)O` (stereo not shown) [lactate]: the “rescue of M2-like morphology by addition to CM of oxamic acid-treated cells” value in experiment [1] is listed as “restored”. Further, the “increase of AKT/mTOR pathway phosphorylation in Gpr132-KO macrophages” value with AKT/mTOR signaling (Gpr132-KO BMDMs) is on record as “not”. Also, in the experiment on AKT/mTOR signaling (serum starved WT BMDMs), the “phosphorylation of AKT (Thr308), mTOR (Ser2481), S6 Ribosomal protein (Ser235/236) and RSK-1 (Thr421/Ser424) in WT macrophages” value is recorded as “increased”. Moreover, in the experiment on 4T1.2 cells, the “adherence of 4T1.2 cells to fibronectin with CM from activated macrophages” value was “significantly increased”.
